# From patent US20130324522A1, “INSECT ODORANT RECEPTOR ANTAGONISTS” (THE ROCKEFELLER UNIVERSITY, priority 2010, published 2013)
# Like-named read-outs stand apart in the source and are kept apart here.
# Tests used:
# Type in all cases: cell-based
# mOREG = biological target: T1, mOREG (Mus musculus, UniProt Q920P2); assay: Ca2+-imaging, control receptor mOREG; details: for inhibition at 4 µM: read-out: Percent Inhibition mOREG; for IC50: Table B
# T1 sequence (Q920P2 1-313): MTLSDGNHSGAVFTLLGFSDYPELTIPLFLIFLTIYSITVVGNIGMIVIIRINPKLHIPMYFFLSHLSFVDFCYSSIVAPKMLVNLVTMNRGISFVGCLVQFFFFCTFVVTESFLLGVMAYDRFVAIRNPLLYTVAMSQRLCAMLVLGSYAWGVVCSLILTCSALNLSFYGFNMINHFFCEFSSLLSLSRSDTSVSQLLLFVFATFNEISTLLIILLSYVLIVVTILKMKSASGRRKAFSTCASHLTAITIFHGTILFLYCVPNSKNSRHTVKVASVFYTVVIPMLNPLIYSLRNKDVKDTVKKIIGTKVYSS
# Protocol: (§1) Stable cell lines were cultured in 10 cm dishes, and confluent cells (70-80%) were trypsinized. 10,000 cells/20 μL were transferred into each well of 384-well plates coated with poly-D-lysine, and cultured for 2 days. For Flip-In T-Rex cells (cell lines expressing Or47a/Or83b and 5HT3), 5 μL of tetracycline (5 μg/mL) were added 1 day before the assay. 20 μL of Ca-4 dye was loaded into each well for 1.5 hr at room temperature in the dark, and the dye-loaded plates were subjected to Ca^2+-imaging using a Hamamatsu FDSS6000 real time fluorescence plate reader. Odorant solutions (9× final concentration) were prepared by dissolving 1M stock solutions into Hank's Buffered Salt Solution (HBSS), and 30 μL of odor solution was transferred to each well in 384-well plates. The last two columns of the plate (32 wells total) were used as control wells as follows: • negative control with HBSS buffer (16 wells) • positive control with ligands (16 wells).
# (§2) Compounds ([…] in DMSO) were stored in 384-well plates, and last two columns (32 wells total) contained only DMSO. 200 nL of small compounds were transferred into the odorant plates before the assay using the Perkin-Elmer Janus workstation. The odorant plates were spun down to remove air bubbles, and placed on the FDSS6000 plate loader, and 5 μL of odorant solution was applied to the cell plate on the FDSS6000. Ca^2+ increase was monitored with fluorescence at 525 nm by excitation at 485 nm.
# TRP channel (TRPM8) = biological target: T2, TRP channel (TRPM8) (Mus musculus, UniProt Q8R4D5); assay: Ca2+-imaging of stable HEK293T cell line TRPM8; details: for inhibition at 4 µM: HEK-293T, read-out: Percent Inhibition TRPM8
# T2 construct: Full-length cDNAs for mosquito (Anopheles gambiae) odorant receptor (OR1, OR2, OR7, OR8, OR28), and fly (Drosophila melanogaster) odorant receptor (Or47a, Or83b), mouse TRP channel (TRPM8); expressed in transfected cells
# T2 sequence (Q8R4D5 whole entry): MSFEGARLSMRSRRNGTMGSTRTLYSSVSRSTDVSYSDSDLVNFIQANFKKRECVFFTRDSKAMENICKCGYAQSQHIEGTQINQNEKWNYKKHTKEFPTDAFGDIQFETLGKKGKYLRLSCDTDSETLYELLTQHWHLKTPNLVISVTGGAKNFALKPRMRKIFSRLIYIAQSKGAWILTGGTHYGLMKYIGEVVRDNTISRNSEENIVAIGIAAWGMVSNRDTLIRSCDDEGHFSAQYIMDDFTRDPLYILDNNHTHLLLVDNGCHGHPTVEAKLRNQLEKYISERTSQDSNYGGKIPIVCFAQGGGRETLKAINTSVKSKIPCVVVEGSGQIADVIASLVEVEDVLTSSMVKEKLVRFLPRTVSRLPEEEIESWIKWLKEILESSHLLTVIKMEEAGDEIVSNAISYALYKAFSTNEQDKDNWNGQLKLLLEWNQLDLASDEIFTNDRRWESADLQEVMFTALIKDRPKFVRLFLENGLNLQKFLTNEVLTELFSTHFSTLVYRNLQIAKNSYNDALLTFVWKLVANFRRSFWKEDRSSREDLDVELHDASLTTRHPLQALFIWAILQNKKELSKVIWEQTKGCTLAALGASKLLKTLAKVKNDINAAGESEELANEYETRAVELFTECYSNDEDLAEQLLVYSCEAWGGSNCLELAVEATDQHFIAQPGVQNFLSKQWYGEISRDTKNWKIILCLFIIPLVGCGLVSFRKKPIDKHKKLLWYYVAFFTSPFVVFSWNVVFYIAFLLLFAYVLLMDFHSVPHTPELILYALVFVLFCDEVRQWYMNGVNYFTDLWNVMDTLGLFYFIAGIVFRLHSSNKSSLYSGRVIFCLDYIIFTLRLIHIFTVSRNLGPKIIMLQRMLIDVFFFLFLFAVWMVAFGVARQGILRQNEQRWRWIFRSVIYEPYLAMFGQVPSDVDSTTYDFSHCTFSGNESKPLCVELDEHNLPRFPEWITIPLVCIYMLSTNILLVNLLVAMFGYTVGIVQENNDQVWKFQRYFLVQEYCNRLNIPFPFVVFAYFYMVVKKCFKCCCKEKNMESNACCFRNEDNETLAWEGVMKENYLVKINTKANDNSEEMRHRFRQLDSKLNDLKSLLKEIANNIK
# Protocol: (§3) Full-length cDNAs for mosquito (Anopheles gambiae) odorant receptor (OR1, OR2, OR7, OR8, OR28), and fly (Drosophila melanogaster) odorant receptor (Or47a, Or83b), mouse TRP channel (TRPM8), and mouse serotonin receptor (5HT3) were obtained and subcloned into mammalian expression vectors. The following mammalian expression vectors were used:
# (§4) Stable cell lines OR1/OR7, OR2/OR7, OR8/OR7, OR10/OR7, OR28/OR7 and TRPM8 were generated from HEK293T cells. HEK293T-based cell lines were cultured in DMEM supplemented with these additional antibiotics: 6 μg/mL blasticidin and 1 μg/mL puromycin, with the exception of the TRPM8 cell lines, which was cultured in DMEM supplemented with 1 μg/mL puromycin.
# (§5) Cells were trypsinized and split into 35 mm dishes one day before transfection. Confluent cells (60-70%) in 35 mm dishes were transfected with 1 μg of insect OR(X) plasmids in pME18s-bla and 1 μg of OR7-pME18s-puro using lipofectamine 2000. For Anopheles odorant receptors, two plasmids were co-transfected into HEK cells: the ligand-specific receptor (OR1, OR2, OR8, OR28) and the corresponding olfactory co-receptor: OR7. Cell lines containing TRPM8 were transfected with single plasmid.
# as §1, with “plates.” for “plates. The last two columns of the plate (32 wells total) were used as control wells as follows: • negative control with HBSS buffer (16 wells) • positive control with ligands (16 wells).”
# as §2
# OR8/OR7 = OR8/OR7 (Anopheles gambiae, UniProt Q7PUT5+Q7QCC7); assay: Ca2+-imaging of stable HEK293T cell line OR8/OR7; details: for inhibition at 4 µM: HEK-293T, read-out: Percent Inhibition OR8 OR7; for IC50: Table B, read-out: IC50 OR8
# Sequence of OR8/OR7 (Q7QCC7 whole entry): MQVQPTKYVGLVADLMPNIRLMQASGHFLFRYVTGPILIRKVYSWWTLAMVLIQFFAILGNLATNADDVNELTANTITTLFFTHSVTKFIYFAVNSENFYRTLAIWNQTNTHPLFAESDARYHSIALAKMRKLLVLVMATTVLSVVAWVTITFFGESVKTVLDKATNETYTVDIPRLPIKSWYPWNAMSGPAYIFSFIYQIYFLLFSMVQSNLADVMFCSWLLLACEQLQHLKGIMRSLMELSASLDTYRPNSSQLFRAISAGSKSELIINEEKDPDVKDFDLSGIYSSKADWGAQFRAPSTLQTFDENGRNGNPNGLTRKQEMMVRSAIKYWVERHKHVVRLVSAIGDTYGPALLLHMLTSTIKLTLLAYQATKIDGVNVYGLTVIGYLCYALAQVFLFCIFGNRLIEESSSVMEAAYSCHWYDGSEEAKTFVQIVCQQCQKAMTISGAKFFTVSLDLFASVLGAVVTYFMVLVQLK
# Sequence of OR8/OR7 (Q7PUT5 entry or part of it): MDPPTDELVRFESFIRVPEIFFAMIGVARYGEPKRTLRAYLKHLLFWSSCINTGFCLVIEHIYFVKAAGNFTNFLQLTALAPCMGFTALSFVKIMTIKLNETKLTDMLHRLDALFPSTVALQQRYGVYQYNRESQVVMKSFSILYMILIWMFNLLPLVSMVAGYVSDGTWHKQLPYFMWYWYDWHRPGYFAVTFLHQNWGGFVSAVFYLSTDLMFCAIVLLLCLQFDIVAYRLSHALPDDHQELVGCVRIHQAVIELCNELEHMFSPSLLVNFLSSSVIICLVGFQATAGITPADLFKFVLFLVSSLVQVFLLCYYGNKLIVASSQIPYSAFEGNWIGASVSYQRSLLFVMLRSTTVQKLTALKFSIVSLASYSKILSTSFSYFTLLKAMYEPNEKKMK
# Protocol: as §3, §4, §5
# as §1, with “plates.” for “plates. The last two columns of the plate (32 wells total) were used as control wells as follows: • negative control with HBSS buffer (16 wells) • positive control with ligands (16 wells).”
# as §2
# OR10/OR7 = OR10/OR7 (Anopheles gambiae, UniProt B5U0U7+Q7QCC7); assay: Ca2+-imaging of stable HEK293T cell line OR10/OR7; details: for inhibition at 4 µM: HEK-293T, read-out: Percent Inhibition OR10 OR7
# Sequence of OR10/OR7 (Q7QCC7 whole entry): as the sequence (Q7QCC7 whole entry) above
# Sequence of OR10/OR7 (B5U0U7 entry or part of it): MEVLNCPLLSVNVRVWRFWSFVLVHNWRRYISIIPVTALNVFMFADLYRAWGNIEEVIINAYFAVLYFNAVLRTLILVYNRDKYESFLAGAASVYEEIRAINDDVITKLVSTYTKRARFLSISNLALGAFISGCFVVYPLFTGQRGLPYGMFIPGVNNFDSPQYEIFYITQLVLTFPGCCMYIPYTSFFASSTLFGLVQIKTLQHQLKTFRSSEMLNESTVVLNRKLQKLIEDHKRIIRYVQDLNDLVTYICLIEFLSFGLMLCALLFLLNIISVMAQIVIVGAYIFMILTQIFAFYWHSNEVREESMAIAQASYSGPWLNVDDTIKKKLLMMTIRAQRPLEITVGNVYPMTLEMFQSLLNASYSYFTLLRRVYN
# Protocol: as §4
# After one day of incubation, the transfected cells were transferred into 10 cm dishes with DMEM containing antibiotics as follows: • 0.5 μg/mL of blasticidin for OR1/OR7, OR2/OR7, OR8/OR7, OR10/OR7, OR28/OR7 • 0.2 μg/mL of puromycin for TRPM8.
# as §1, with “plates.” for “plates. The last two columns of the plate (32 wells total) were used as control wells as follows: • negative control with HBSS buffer (16 wells) • positive control with ligands (16 wells).”
# as §2
SMILES,inhibition at 4 µM (mOREG; compound applied at 4 μM) [%],inhibition at 4 µM (TRP channel (TRPM8); compound applied at 4 μM) [%],inhibition at 4 µM (OR8/OR7; compound applied at 4 μM) [%],inhibition at 4 µM (OR10/OR7; compound applied at 4 μM) [%],"IC50 (OR10/OR7; Table B, read-out: IC50 OR10) [nM]","IC50 (TRP channel (TRPM8); Table B, read-out: IC50 TRPM8) [nM]",IC50 (OR8/OR7) [nM],inhibition at 4 µM (mOREG) [%],inhibition at 4 µM (TRP channel (TRPM8)) [%],inhibition at 4 µM (OR8/OR7) [%],inhibition at 4 µM (OR10/OR7) [%],IC50 (OR10/OR7) [nM],IC50 (mOREG) [nM]
O=C(c1c(F)c(F)cc(F)c1F)N1CCOC(Cc2ccccc2)C1 (stereo not shown) [RU-0050393],26 to 50,< 25,26 to 50,51 to 74,> 1000,–,–,–,–,–,–,–,–
CC(C)CN(Cc1nccn1Cc1ccc(Cl)cc1Cl)C(=O)c1ccccc1F [RU-0055322],26 to 50,< 25,< 25,51 to 74,< 100,–,–,–,–,–,–,–,–
CC(C)CN(Cc1nccn1Cc1c(F)cccc1Cl)C(=O)c1ccc(F)cc1 [RU-0048054],< 25,< 25,< 25,51 to 74,< 100,–,–,–,–,–,–,–,–
O=C(Cc1cccc(F)c1)N1CCOC(COCc2c(Cl)cccc2Cl)C1 (stereo not shown) [RU-0050398],< 25,< 25,< 25,< 25,–,–,–,–,–,–,–,–,–
O=C(c1ccco1)N(Cc1nccn1Cc1ccccc1Cl)CC1CC1 [RU-0047281],26 to 50,51 to 74,> 75,> 75,–,> 1000,> 1000,–,–,–,–,–,–
Cc1cc(C)c(Cn2ccnc2CN(C(=O)c2ccccc2F)C(C)C)c(C)c1 [RU-0048001],26 to 50,26 to 50,26 to 50,> 75,< 100,–,–,–,–,–,–,–,–
O=C(NCCC(=O)N1CCOC(COCc2ccc(F)cc2Cl)C1)OCc1ccccc1 (stereo not shown) [RU-0050344],26 to 50,< 25,26 to 50,26 to 50,–,–,–,–,–,–,–,–,–
N#Cc1ccccc1C(=O)N1CCOC(COCc2c(Cl)cccc2Cl)C1 (stereo not shown) [RU-0050405],< 25,< 25,26 to 50,26 to 50,> 1000,–,–,–,–,–,–,–,–
O=C(C1CCC1)N(Cc1ccco1)Cc1nccn1Cc1ccccc1Cl [RU-0048066],< 25,< 25,< 25,51 to 74,< 100,–,–,–,–,–,–,–,–
CCN(CC)C(=O)Oc1ccc2c(ccn2Cc2cccc(C)c2)c1NC(=O)CCCCC(=O)OC [RU-0075445],–,–,–,–,–,–,–,< 25,< 25,< 25,< 25,–,–
Cc1c(C(=O)NCc2ccco2)cnn1-c1ccccc1 [RU-0047765],< 25,26 to 50,< 25,51 to 74,< 100,–,–,–,–,–,–,–,–
C=CCN(Cc1nccn1Cc1ccccc1F)C(=O)C1CCCC1 [RU-0058964],26 to 50,26 to 50,26 to 50,> 75,< 100,–,–,–,–,–,–,–,–
O=C(c1cccc(F)c1)N(Cc1c(-c2ccccc2)noc1N1CCCC1)CC1CCCO1 (stereo not shown) [RU-0037434],26 to 50,< 25,51 to 74,26 to 50,–,–,> 1000,–,–,–,–,–,–
COCCN(Cc1nccn1Cc1c(F)cccc1Cl)C(=O)CCc1ccccc1 [RU-0058550],26 to 50,< 25,< 25,26 to 50,–,–,–,–,–,–,–,–,–
CCN(CC)C(=O)Oc1ccc2c(ccn2Cc2ccc(Cl)cc2)c1NC(=O)C1CC1 [RU-0075475],–,–,–,–,–,–,–,< 25,< 25,< 25,> 75,< 100,–
CCN(CC)c1onc(-c2ccc(F)cc2)c1CN(CCCOC)C(=O)c1ccc2c(c1)OCO2 [RU-0036983],26 to 50,26 to 50,51 to 74,26 to 50,–,–,> 1000,–,–,–,–,–,–
CCn1c(C)c(C(=O)CN(CC2CCCO2)C(=O)C2C[C@H]2c2ccccc2)c(C)c1C(=O)OC (stereo partly shown) [RU-0071273],26 to 50,< 25,26 to 50,51 to 74,< 100,–,–,–,–,–,–,–,100 to 1000
C=CCN(Cc1nccn1Cc1ccccc1C)C(=O)CC(C)C [RU-0058298],26 to 50,26 to 50,< 25,> 75,< 100,–,–,–,–,–,–,–,–
COCCN(Cc1c(-c2ccccc2)noc1N1CCSCC1)CC(O)COCc1ccco1 (stereo not shown) [RU-0037278],26 to 50,< 25,26 to 50,26 to 50,–,–,–,–,–,–,–,–,–
CCOC(=O)c1c(NC(C)=O)c(-c2ccc(OC)cc2)cn1Cc1ccccc1 [RU-0077733],< 25,< 25,< 25,26 to 50,–,–,–,–,–,–,–,–,–
Cc1ccc(-c2nnc(SCCCC(=O)N3CCN(C(=O)c4cccc(F)c4)C(C)C3)n2-c2ccc(C)cc2)cc1 (stereo not shown) [RU-0071789],26 to 50,< 25,< 25,> 75,< 100,–,–,–,–,–,–,–,–
CCN(CC)c1onc(-c2ccccc2)c1CN(CC1CCCO1)C(=O)c1ccc2c(c1)OCO2 (stereo not shown) [RU-0036875],51 to 74,< 25,51 to 74,26 to 50,–,–,> 1000,–,–,–,–,–,> 1000
CC(C)N(Cc1nccn1Cc1c(F)cccc1Cl)C(=O)c1ccc(Cl)cc1 [RU-0055364],26 to 50,< 25,26 to 50,> 75,100 to 1000,–,–,–,–,–,–,–,–
COc1ccccc1CCC(=O)N1CCC(CCC(=O)Nc2ccccc2)CC1 [RU-0032455],26 to 50,< 25,26 to 50,< 25,–,–,–,–,–,–,–,–,–
CCc1cc(N2CCCC2)nc(SCc2ccc(C(=O)N3CCOCC3)o2)n1 [RU-0047568],26 to 50,26 to 50,26 to 50,> 75,< 100,–,–,–,–,–,–,–,–
c1ccc(CNc2nc(NCc3ccco3)nc(N3CCOCC3)n2)cc1 [RU-0020050],26 to 50,26 to 50,> 75,< 25,–,–,> 1000,–,–,–,–,–,–
Cc1ccccc1C(=O)N[C@@H]1CCCCC1NC(=O)C1CCN(C(=O)C23CC4CC(CC(C4)C2)C3)CC1 (stereo partly shown) [RU-0045351],26 to 50,< 25,< 25,< 25,–,–,–,–,–,–,–,–,–
